Laboratory results taken from US8633245B2, “PAI-1 inhibitor” (Institute of Medicinal Molecular Design, Inc., priority 2008, dated 2014).

Molecular target: T1, recombinant human PAI-1 (Homo sapiens, UniProt P05121)
T1 construct: purchased Molecular Innovations, Inc
Assay: Test Example 2: human PAI-1 inhibitory activity (tPA fluorogenic substrate, pH 7.4 HEPES buffer)
Assay type: biochemical
Details: human PAI-1
Protocol: 0.1 M HEPES, 0.1 M NaCl. 1 mM EDTA. 0.1% Polyethylene glycol 8,000 (Hampton Research Corporation),
2 mM Dimethyldecylphoshine oxide [Apo-10] (Fluka Corporation)

T1 sequence (P05121 24-402): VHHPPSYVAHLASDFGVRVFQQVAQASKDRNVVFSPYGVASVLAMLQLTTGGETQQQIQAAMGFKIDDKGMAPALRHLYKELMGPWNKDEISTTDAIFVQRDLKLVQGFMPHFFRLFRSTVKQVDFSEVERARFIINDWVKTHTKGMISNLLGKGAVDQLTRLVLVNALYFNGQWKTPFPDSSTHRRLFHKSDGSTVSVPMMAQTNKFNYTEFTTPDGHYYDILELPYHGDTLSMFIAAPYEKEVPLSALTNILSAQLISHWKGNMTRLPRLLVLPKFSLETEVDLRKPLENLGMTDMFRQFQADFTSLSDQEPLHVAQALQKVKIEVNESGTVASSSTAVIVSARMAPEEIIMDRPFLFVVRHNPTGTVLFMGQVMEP

SMILES	Inhibition Rate of PAI-1 Activity (%) (compound concentration 0.1 μM)	Inhibition Rate of PAI-1 Activity (%) (compound concentration 0.3 μM)	Inhibition Rate of PAI-1 Activity (%) (compound concentration 1 μM)	Inhibition Rate of PAI-1 Activity (%) (compound concentration 3 μM)
CC(C)(C)c1ccc(Oc2ccc(Nc3ccc(OC(F)(F)F)cc3)cc2/C=C/C(=O)O)cc1 [Compound 431]	0%	0%	77%	>99%
CC(C)(C)c1ccc(Oc2ccc(Nc3ccc(OC(F)(F)F)cc3)cc2CCC(=O)O)cc1 [Compound 432]	4%	0%	25%	97%
CCCCN(CC(=O)O)c1cc(-c2ccc(OC(F)(F)F)cc2)ccc1OCCCCc1ccccc1 [Compound 433]	13%	6%	41%	98%
CC(C)(C)c1ccc(Oc2cc(-c3ccc(OC(F)(F)F)cc3)ccc2C(=O)O)cc1 [Compound 434]	14%	8%	66%	>99%
CCCN(CC(=O)O)c1cc(-c2ccc(OC(F)(F)F)cc2)ccc1Oc1ccc(C(C)(C)C)cc1 [Compound 435]	12%	29%	81%	98%
CC(C)(C)c1cccc(Oc2cc(-c3ccc(OC(F)(F)F)cc3)ccc2OCC(=O)O)c1 [Compound 436]	3%	19%	63%	>99%
CC(C)(C)c1cccc(Oc2ccc(-c3ccc(OC(F)(F)F)cc3)cc2/C=C/C(=O)O)c1 [Compound 437]	0%	12%	67%	98%
CC(C)(C)c1cccc(Oc2ccc(-c3ccc(OC(F)(F)F)cc3)cc2CCC(=O)O)c1 [Compound 438]	13%	11%	50%	>99%
CC(C)(C)c1cccc(Oc2ccc(-c3ccc(OC(F)(F)F)cc3)cc2OCC(=O)O)c1 [Compound 439]	12%	9%	44%	>99%

Next, values leading:

Inhibition Rate of PAI-1 Activity (%) (compound concentration 0.1 μM)	Inhibition Rate of PAI-1 Activity (%) (compound concentration 0.3 μM)	Inhibition Rate of PAI-1 Activity (%) (compound concentration 1 μM)	Inhibition Rate of PAI-1 Activity (%) (compound concentration 3 μM)	SMILES
0%	3%	96%	>99%	CCCCCOc1ccc(-c2ccc(OCC(=O)O)c(Oc3ccc(C(C)(C)C)cc3)c2)cc1 [Compound 440]
9%	29%	89%	98%	CC(C)c1ccc(-c2ccc(OCC(=O)O)c(Oc3ccc(C(C)(C)C)cc3)c2)cc1 [Compound 441]
1%	4%	83%	>99%	CC(C)(C)c1ccc(Oc2cc(-c3ccc(OC(F)(F)F)cc3)ccc2NCC(=O)O)cc1 [Compound 442]
7%	8%	76%	>99%	CCCCc1ccc(-c2ccc(OCC(=O)O)c(Oc3ccc(C(C)(C)C)cc3)c2)cc1 [Compound 443]
0%	0%	11%	96%	Cc1ccc(-c2ccc(OCC(=O)O)c(Oc3ccc(C(C)(C)C)cc3)c2)cc1 [Compound 444]
0%	1%	12%	50%	COc1ccc(-c2ccc(OCC(=O)O)c(Oc3ccc(C(C)(C)C)cc3)c2)cc1 [Compound 445]
